We go through one compound from patent US9808434B2, “Compound for treating cancer and diabetes” (CITY OF HOPE, priority 2011, dated 2017).

SMILES strings stand for the structures.

The subject of one assay is AMPK. The assay is described as follows: AMPK activation in HL-60 cells, Western blot. It is filed as cell-based, human. The conditions noted are these: 1 hour. Here is the method:
Activation of AMPK was associated with the phosphorylation of the α-subunit on Thr-172 of as assessed using phospho-specific antibodies (FIGS. 10A-B). AMPK activation also leads to the increased phosphorylation of the target protein acetyl-CoA carboxylase (ACC) (FIG. 10B).
Cells of each cell lines (Hela, HL-60, and 3T3-L1) were treated for 1 hour with a test compound (COH-SR4, COH-SR9, COH-SR16, or COH-SR18) at a concentration of 1 μM, 3 μM, or 5 μM, or AICAR (5-aminoimidazole-4-carboxamideriboside, an AMPK agonist used as positive control) at a concentration of 500 μM, or none of the above (the untreated cells as negative control). Total cell lysates from the untreated cells and the cells treated with a test compound or AICAR were analyzed by Western blot assay using specific antibodies against phospho-AMPK, phospho-ACC, total AMPK and total ACC.

A further assay concerns B16-F0. The assay is described as follows: Colony formation assay, B16-F0. The note with it: 10 μM, vs untreated control. It counts as cell-based, mouse. On the procedure: (§1) Cell survival was evaluated using a standard colony-forming assay. […] After 7 or 10 days, adherent colonies were fixed, stained with 0.5% methylene blue for 30 min and colonies were counted using the Innotech Alpha Imager HP (91).

A further assay has as its system B16-F0 melanoma. It is filed as in vivo. On the procedure: For melanoma studies, C57B mice (for syngeneic B16-F0 mouse melanoma model) and Hsd: Athymic nude nu/nu mice (for A2058 human melanoma mouse xenografts model), were obtained from Harlan, Indianapolis, Ind. All animal experiments were carried out in accordance with a protocol approved by the Institutional Animal Care and Use Committee (IACUC). In each model, ten 10-weeks-old mice were divided into two groups of 5 animals (treated with corn oil (vehicle), and COH-SR4 compound 4 mg/kg b.w.). All animals were injected with 2×10^6 melanoma cells suspensions in 100 μL of PBS, subcutaneously into one flank of each mouse. Treatment was started 10 days after the implantation to see palpable tumor growth. Treatment consisted of 0.1 mg of COH-SR4/mice in 200 μL corn oil by oral gavage alternate day. Control groups were treated with 200 μL corn oil by oral gavage alternate days. Animals were examined daily for signs of tumor growth. Tumors were measured in two dimensions using calipers. Photographs of animals were taken at day 1, day 10, day 14, day 18, day 20, day 30, and day 51 after subcutaneous injection, are shown for all groups. Photographs of tumors were also taken at day 20 (for syngeneic model), and at day 51 (for xenograft model).
C57B mice for syngeneic model were obtained from Harlan, Indianapolis, Ind. All animal experiments were carried out in accordance with a protocol approved by the Institutional Animal Care and Use Committee (IACUC). Ten 10-weeks-old mice were divided into two groups of 5 animals (treated with corn oil (vehicle), and COH-SR4 4 mg/kg body weight). All 10 animals were injected with 1×10^6 mouse melanoma cells (B16-F0) suspensions in 100 μL of PBS, subcutaneously into one flank of each mouse. Treatment was started 10 days after the B16 melanoma cells implantation to see palpable tumor growth. Treatment consisted of 0.1 mg of COH-SR4/mice in 200 μL corn oil by oral gavage alternate day. Control groups were treated with 200 μL corn oil by oral gavage alternate day. Animals were examined daily for signs of tumor growth, and body weights were recorded. Tumors were measured in two dimensions using calipers. Photographs of animals were taken at day 1, day 10, day 14, day 18, and day 20 after subcutaneous injection, are shown for all groups. Photographs of tumors were also taken at day 20.
C57B mice (for syngeneic B16-F0 mouse melanoma model) and Hsd: Athymic nude nu/nu mice (for A2058 human melanoma mouse xenografts model), were used for testing the impact of oral administration of COH-SR4 on melanoma progression in vivo models. In each model, ten 10-weeks-old mice were divided into two groups of 5 animals (treated with corn oil (vehicle), and COH-SR4 compound (4 mg/kg b.w.). All animals were injected with 2×10^6 melanoma cells suspensions in 100 μL of PBS, subcutaneously into one flank of each mouse. Treatment was started 10 days after the implantation of melanoma cells. Treatment consisted of 0.1 mg of COH-SR4/mice in 200 μL corn oil by oral gavage on alternate days. Control groups were treated with 200 μL corn oil by oral gavage alternate day. Animals were examined daily for signs of tumor growth and body weights were recorded. […] Animals were examined daily for signs of tumor growth. Tumors were measured in two dimensions using calipers. […] Tumors were measured in two dimensions using calipers and time-course analysis of tumor regression was performed during the study. […]

For another assay, the system named is A2058. Description: Colony formation assay, A2058. It is filed as cell-based, human. Here is the method:
as §1

In a further assay the test system is PBT-017. Description: Glioma ATP viability assay, PBT-017. It counts as cell-based. The conditions noted are these: 72 h. On the procedure:
Cells of each cell line (U251, U87, PBT-017, PBT018, PBT003 and PBT028) were treated with various concentrations (0˜100 μM) of COH-SR4 for 72 hours. Cell viabilities were determined by ATP viability assays. Data were represented as a ratio to vehicle (DMSO) control, and plotted as mean±SEM (n=12) obtained from 2˜3 experiments (FIG. 34A).
Cells of each cell line (U87, U251, PBT003 and PVT-017) were treated with various concentrations (0˜100 μM) of COH-SR4 for 72 hours. Cell viabilities were determined by ATP viability assays. Data were represented as a ratio to vehicle (DMSO) control, and plotted as mean±SEM (n=12) obtained from 2-3 experiments (FIG. 34B).
Cells of each cell line were treated with various concentrations (0˜100 μM) of COH-SR4 or various concentrations (0˜1000 μM) of TMZ for 72 hours. Cell viabilities were determined by ATP viability assays. Data were represented as a ratio to untreated cells as control, and plotted as mean±SEM (n=12) obtained from 2˜3 experiments (FIGS. 43A-B).

The term IC50 denotes the concentration at which inhibition is half-maximal. Higher therefore signals lower potency. For `O=C(Nc1cc(Cl)cc(Cl)c1)Nc1cc(Cl)cc(Cl)c1` [COH-SR4, 1,3-bis(3,5-dichlorophenyl) urea], the AMPK activation result in the assay with AMPK is given as “activated AMPK”. Besides, the colony formation in the assay with B16-F0 is listed as 38±9%; in the assay on A2058 (5 μM) it was 43±7%; with A2058 (10 μM, vs untreated control), 37±4%. In the assay with B16-F0 melanoma (Example 16, 4 mg/kg oral gavage alternate day), the “tumor cross-section areas compared to corn oil” value is reported as “significantly smaller”. The compound further gave a day of death with B16-F0 melanoma (Example 16, 4 mg/kg, corn oil only died on day 20) of 48 days. The “tumor weights compared to corn oil” value in the assay on B16-F0 melanoma (Example 16, day 20) is on record as “significantly smaller”. For the same compound, the tumor weight in the assay with B16-F0 melanoma (Example 22, day 20, control 2.36±0.2 g) turned out to be 1.07 ± 0.2 g. Moreover, the survival with B16-F0 melanoma (Example 22, vehicle censored by day 20±2) stood at 50 ± 5 days. Moreover, the results for the IC50 with PBT-017 (Table 1) and with PBT-017 (Table 2) were 2 µM and 2.1 µM, respectively.
